Laboratory results reported in article PMC5847527, “Identification of a novel 2-oxindole fluorinated derivative as in vivo antitumor agent for prostate cancer acting via AMPK activation” (Scientific Reports, 2018).

Legend:
Type in all cases: cell-based, human
[1] = test system: cleaved Caspase 3 (17 kDa fragment); test: Cleaved Caspase 3 level by Western blot in prostate cells
Method: Figure 4 Cell Cycle analysis in 8c-treated prostate cancer cells. (A) PC-3 and LNCaP cells were treated with compound 8c for 24 hours and cell cycle analysis was analyzed by flow cytometry using Propidium Iodide (PI). Percentage of cells in subG0, G1, S, and G2/M phases is indicated in the histogram. (B) Levels of Cyclin D1, p-p53, p53, p21 and cleaved Caspase 3 (17 kDa fragment) were determined by Western blot. Upper panel, representative Western blot of two different experiments. β-tubulin (β-Tub) serves as a loading control. […]
Cyclin D1 activity is modulated by several inhibitors such as p21 which negatively regulate cell cycle progression by interacting with cyclin dependent kinases (cdks). […] To further study the role of compound 8c in cell cycle, we determined the expression of p21, p53 and the levels of cleaved caspase 3 in the prostate cells. P53 was only determined in LNCaP cells since PC-3 cells are p53-negative[40].
Cells were lysed in Lysis buffer (50 mM Tris pH 7.4, 0.8 M NaCl, 5 mM MgCl2, 0.1% Triton X-100) containing Protease Inhibitor and Phosphatase inhibitor Cocktails (Roche, Basel, Switzerland). Protein concentrations were measured by BioRad™ protein assay kit (Richmond, CA, USA). […] Films were analyzed by densitometry. […]

LNCaP cells = test: Cell cycle analysis by flow cytometry (Propidium Iodide), LNCaP; settings: 24 h, 25 μM and 50 μM
Method: For that, we treated PC-3 and LNCaP cells with 25 μM and 50 μM of compound 8c for 24 h and performed cell cycle analysis by flow cytometry using Propidium Iodide (PI). […] It is worthy to note that when PC-3 cells were treated with compound 8c, 80% of cells were in subG0 phase (Fig. 4A).
Figure 4 Cell Cycle analysis in 8c-treated prostate cancer cells. (A) PC-3 and LNCaP cells were treated with compound 8c for 24 hours and cell cycle analysis was analyzed by flow cytometry using Propidium Iodide (PI). Percentage of cells in subG0, G1, S, and G2/M phases is indicated in the histogram. (B) Levels of Cyclin D1, p-p53, p53, p21 and cleaved Caspase 3 (17 kDa fragment) were determined by Western blot. Upper panel, representative Western blot of two different experiments. β-tubulin (β-Tub) serves as a loading control. Lower panel, the densitometric analyses of bands represented as the mean ± SD of the two different experiments. *p < 0.05 and **p < 0.01 compared with the control group by the Student’s t-test.
Flow cytometry was used to detect the distribution of cell cycle. After being cultivated with the treatment, 10^5 cells in 35 mm culture dish were harvested in 0.35% trypsin, collected and fixed with 70% cold ethanol at 4 °C for 1 h. Then, cells were centrifuged at 1500 g for 5 min and incubated in 0.5 ml PBS containing 0.1 mg/ml RNase for 30 min at 37 °C. […]

HIF-1A = HIF-1A expression by Western blot in PC-3 and LNCaP cells; settings: 25 µM
Method: To further confirm the compound 8c-induced activation of AMPK, PC-3 and LNCaP cells were incubated with the compound for 1 h and 24 hours in the presence of the AMPK inhibitor Dorsomorphin. […] Accordingly, ACC phosphorylation was increased at 1 h and 24 h and prevented by Dorsomorphin in both cell lines. AMPK inhibits mTORC1 through phosphorylation of Raptor on two well-conserved serine residues (ser722 and ser792) inducing cell-cycle arrest in response to an energy stress. To further support the 8c-induced AMPK activation, we determined Raptor phosphorylation on Ser792 in prostate cells.
Figure 5 AMPK activation by compound 8c in prostate cancer cells. (A) PC-3 and LNCaP cells were treated with vehicle, 25 µM compound 8c, 25 µM compound 8c + 5 μM Dorsomorphin (8c + D) or 5 μM Dorsomorphin (D), for 1 hour or 24 hours and levels of the phosphorylated AMPK (pAMPK), phosphorylated ACC (pACC), phosphorylated Raptor (pRaptor) forms and HIF1α were determined by Western blot. Upper panel, representative Western blot of three different experiments. β-tubulin (β-Tub) serves as a loading control. […] (B) Cell viability monitored by MTT assay in PC-3 and LNCaP cells treated with vehicle, 25 µM and 50 μM compound 8c alone or in the presence of 5 μM Dorsomorphin or transfected with control siRNA (siC) or α1AMPK-selective siRNA (siAMPK). […]

SMILES: O=C1Nc2ccccc2C1(F)Cc1ccc(-c2ccccc2)o1 (stereo not drawn) [Compound 8c, 3-fluoro-3-((5-phenylfuran-2-yl)methyl)indolin-2-one]
- cleaved caspase 3 (17 kDa fragment) [1]: increase in cleaved caspase 3
- subG0 cells (LNCaP cells): increase in subG0 cells
- expression of HIF-1A (HIF-1A): expression of HIF-1A was decreased
